Measured values from ChEMBL document CHEMBL1201862, “PubChem BioAssay data set” (2004).
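All cell lines were grown in 96-well plates and treated with compound for 48 hours. The concentration for 50% growth inhibition is given as GI50.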 Active and inactive are the calls of the source. Cut-off read from the data, not from the text of the source: active = GI50 up to about 1.1 µM and inactive = higher.

How the values were obtained:
Test in all cases: NCI anticancer screen, dose series, 48 h
DMS-273 = tested on: DMS-273
OVCAR-8 = tested on: OVCAR-8
SF-539 = tested on: SF-539
SW-620 = tested on: SW-620
EKVX = tested on: EKVX
SN12C = tested on: SN12C
KM12 = tested on: KM12
SK-MEL-28 = tested on: SK-MEL-28
SNB-19 = tested on: SNB-19
NCI-H460 = tested on: NCI-H460
SNB-78 = tested on: SNB-78
ACHN = tested on: ACHN
SK-OV-3 = tested on: SK-OV-3
786-0 = tested on: 786-0
KM-20L2 = tested on: KM-20L2
SR = tested on: SR
HT-29 = tested on: HT-29
Malme-3M = tested on: Malme-3M
UACC-257 = tested on: UACC-257
HCC 2998 = tested on: HCC 2998
NCI-H23 = tested on: NCI-H23
NCI-H522 = tested on: NCI-H522
DMS-114 = tested on: DMS-114
COLO 205 = tested on: COLO 205
UO-31 = tested on: UO-31
HCT-15 = tested on: HCT-15
A549 = tested on: A549
MOLT-4 = tested on: MOLT-4
CCRF-CEM = tested on: CCRF-CEM
SF-268 = tested on: SF-268
U-251 = tested on: U-251
OVCAR-4 = tested on: OVCAR-4
K562 = tested on: K562
SF-295 = tested on: SF-295
RPMI-8226 = tested on: RPMI-8226
HL-60 = tested on: HL-60
NCI-H226 = tested on: NCI-H226
M14 = tested on: M14
SK-MEL-2 = tested on: SK-MEL-2
XF498 = tested on: XF498
LOX IMVI = tested on: LOX IMVI
OVCAR-5 = tested on: OVCAR-5
OVCAR-3 = tested on: OVCAR-3
CAKI-1 = tested on: CAKI-1
HCT-116 = tested on: HCT-116
HOP-62 = tested on: HOP-62
M19-MEL = tested on: M19-MEL
TK-10 = tested on: TK-10
UACC-62 = tested on: UACC-62
DLD-1 = tested on: DLD-1
SK-MEL-5 = tested on: SK-MEL-5
HOP-92 = tested on: HOP-92
RXF 393 = tested on: RXF 393
IGROV-1 = tested on: IGROV-1
SNB-75 = tested on: SNB-75
LXFL 529 = tested on: LXFL 529
A498 = tested on: A498

## Cc1cnc2ccc(C)c([N+](=O)[O-])c2c1NCCCN(C)C
DMS-273
  GI50: > 100 µM (inactive)
OVCAR-8
  GI50: > 100 µM (inactive)
SF-539
  GI50: > 100 µM (inactive)
SW-620
  GI50: > 100 µM (inactive)
EKVX
  GI50: > 100 µM (inactive)
SN12C
  GI50: > 100 µM (inactive)
KM12
  GI50: > 100 µM (inactive)
SK-MEL-28
  GI50: > 100 µM (inactive)
SNB-19
  GI50: > 100 µM (inactive)
NCI-H460
  GI50: > 100 µM (inactive)
SNB-78
  GI50: > 100 µM (inactive)
ACHN
  GI50: > 100 µM (inactive)
SK-OV-3
  GI50: > 100 µM (inactive)
786-0
  GI50: > 100 µM (inactive)
KM-20L2
  GI50: 91.6 µM (inactive)
SR
  GI50: > 100 µM (inactive)
HT-29
  GI50: > 100 µM (inactive)
Malme-3M
  GI50: > 100 µM (inactive)
UACC-257
  GI50: > 100 µM (inactive)
HCC 2998
  GI50: > 100 µM (inactive)
NCI-H23
  GI50: > 100 µM (inactive)
NCI-H522
  GI50: > 100 µM (inactive)
DMS-114
  GI50: 86.5 µM (inactive)
COLO 205
  GI50: 76.2 µM (inactive)
UO-31
  GI50: 27.2 µM (inactive)
HCT-15
  GI50: > 100 µM
A549
  GI50: > 100 µM (inactive)
MOLT-4
  GI50: > 100 µM (inactive)
CCRF-CEM
  GI50: > 100 µM (inactive)
SF-268
  GI50: > 100 µM (inactive)
U-251
  GI50: > 100 µM (inactive)
OVCAR-4
  GI50: > 100 µM (inactive)
K562
  GI50: > 100 µM (inactive)
SF-295
  GI50: > 100 µM (inactive)
RPMI-8226
  GI50: > 100 µM (inactive)
HL-60
  GI50: > 100 µM (inactive)
NCI-H226
  GI50: 50 µM (inactive)
M14
  GI50: > 100 µM (inactive)
SK-MEL-2
  GI50: > 100 µM (inactive)
XF498
  GI50: > 100 µM (inactive)
LOX IMVI
  GI50: > 100 µM (inactive)
OVCAR-5
  GI50: > 100 µM (inactive)
OVCAR-3
  GI50: > 100 µM (inactive)
CAKI-1
  GI50: > 100 µM (inactive)
HCT-116
  GI50: 74.8 µM (inactive)
HOP-62
  GI50: > 100 µM (inactive)
M19-MEL
  GI50: > 100 µM (inactive)
TK-10
  GI50: > 100 µM (inactive)

## O=C1Nc2ccccc2Nc2nc3cccccc-3c21
DMS-273
  GI50: > 100 µM (inactive)
OVCAR-8
  GI50: > 100 µM (inactive)
SF-539
  GI50: > 100 µM (inactive)
SW-620
  GI50: > 100 µM (inactive)
EKVX
  GI50: > 100 µM (inactive)
SN12C
  GI50: > 100 µM (inactive)
UACC-62
  GI50: > 100 µM (inactive)
KM12
  GI50: > 100 µM (inactive)
SK-MEL-28
  GI50: > 100 µM (inactive)
SNB-19
  GI50: > 100 µM (inactive)
NCI-H460
  GI50: > 100 µM (inactive)
SNB-78
  GI50: > 100 µM (inactive)
ACHN
  GI50: > 100 µM (inactive)
SK-OV-3
  GI50: > 100 µM (inactive)
786-0
  GI50: > 100 µM (inactive)
KM-20L2
  GI50: > 100 µM (inactive)
SR
  GI50: > 100 µM (inactive)
HT-29
  GI50: > 100 µM (inactive)
Malme-3M
  GI50: > 100 µM (inactive)
DLD-1
  GI50: > 100 µM (inactive)
HCC 2998
  GI50: > 100 µM (inactive)
SK-MEL-5
  GI50: > 100 µM (inactive)
HOP-92
  GI50: > 100 µM (inactive)
NCI-H23
  GI50: > 100 µM (inactive)
NCI-H522
  GI50: > 100 µM (inactive)
DMS-114
  GI50: > 100 µM (inactive)
RXF 393
  GI50: > 100 µM (inactive)
IGROV-1
  GI50: > 100 µM (inactive)
COLO 205
  GI50: > 100 µM (inactive)
UO-31
  GI50: > 100 µM (inactive)
HCT-15
  GI50: > 100 µM
A549
  GI50: > 100 µM (inactive)
CCRF-CEM
  GI50: > 100 µM (inactive)
SNB-75
  GI50: > 100 µM (inactive)
SF-268
  GI50: > 100 µM (inactive)
U-251
  GI50: > 100 µM (inactive)
LXFL 529
  GI50: > 100 µM (inactive)
OVCAR-4
  GI50: > 100 µM (inactive)
K562
  GI50: > 100 µM (inactive)
SF-295
  GI50: > 100 µM (inactive)
RPMI-8226
  GI50: > 100 µM (inactive)
HL-60
  GI50: > 100 µM (inactive)
NCI-H226
  GI50: > 100 µM (inactive)
M14
  GI50: > 100 µM (inactive)
SK-MEL-2
  GI50: > 100 µM (inactive)
XF498
  GI50: > 100 µM (inactive)
LOX IMVI
  GI50: > 100 µM (inactive)
OVCAR-5
  GI50: > 100 µM (inactive)
OVCAR-3
  GI50: > 100 µM (inactive)
CAKI-1
  GI50: > 100 µM (inactive)
HCT-116
  GI50: > 100 µM (inactive)
HOP-62
  GI50: > 100 µM (inactive)
M19-MEL
  GI50: > 100 µM (inactive)
TK-10
  GI50: > 100 µM (inactive)

## O=S(O)CCCCCSSc1ccccc1
SF-539
  GI50: 22.8 µM (inactive)
EKVX
  GI50: > 100 µM (inactive)
SN12C
  GI50: 27.8 µM (inactive)
UACC-62
  GI50: 28.3 µM (inactive)
A498
  GI50: 48.5 µM (inactive)
KM12
  GI50: 53.3 µM (inactive)
SK-MEL-28
  GI50: 61.1 µM (inactive)
SNB-19
  GI50: > 100 µM (inactive)
NCI-H460
  GI50: 68.9 µM (inactive)
SNB-78
  GI50: 41 µM (inactive)
ACHN
  GI50: 85.7 µM (inactive)
SK-OV-3
  GI50: > 100 µM (inactive)
SR
  GI50: 8.02 µM (inactive)
HT-29
  GI50: 84.9 µM (inactive)
Malme-3M
  GI50: 10 µM (inactive)
DLD-1
  GI50: 54.8 µM (inactive)
UACC-257
  GI50: 39 µM (inactive)
HCC 2998
  GI50: > 100 µM (inactive)
NCI-H23
  GI50: 52.5 µM (inactive)
NCI-H522
  GI50: 15.3 µM (inactive)
DMS-114
  GI50: 23.6 µM (inactive)
RXF 393
  GI50: 18.3 µM (inactive)
UO-31
  GI50: 31.6 µM (inactive)
MOLT-4
  GI50: 8.13 µM (inactive)
CCRF-CEM
  GI50: 4.5 µM (inactive)
SNB-75
  GI50: 37.3 µM (inactive)
SF-268
  GI50: 15.8 µM (inactive)
U-251
  GI50: 21.3 µM (inactive)
LXFL 529
  GI50: 17 µM (inactive)
OVCAR-4
  GI50: > 100 µM (inactive)
K562
  GI50: 15.3 µM (inactive)
RPMI-8226
  GI50: 18.5 µM (inactive)
HL-60
  GI50: 14.1 µM (inactive)
M14
  GI50: 43.8 µM (inactive)
SK-MEL-2
  GI50: 18.2 µM (inactive)
XF498
  GI50: 24.2 µM (inactive)
LOX IMVI
  GI50: 20 µM (inactive)
OVCAR-5
  GI50: > 100 µM (inactive)
OVCAR-3
  GI50: 43.7 µM (inactive)
HCT-116
  GI50: 24.3 µM (inactive)
HOP-62
  GI50: > 100 µM (inactive)
M19-MEL
  GI50: 50 µM (inactive)
TK-10
  GI50: 84.9 µM (inactive)

## CC(C)OP(=O)(OC(C)C)/C(=N/Nc1ccc([N+](=O)[O-])cc1)NCCN/C(=N\Nc1ccc([N+](=O)[O-])cc1)P(=O)(OC(C)C)OC(C)C
DMS-273
  GI50: 3.7 µM (inactive)
OVCAR-8
  GI50: 4.55 µM (inactive)
SF-539
  GI50: > 100 µM (inactive)
SW-620
  GI50: 3.76 µM (inactive)
EKVX
  GI50: 4.54 µM (inactive)
SN12C
  GI50: 4.07 µM (inactive)
UACC-62
  GI50: 2.15 µM (inactive)
A498
  GI50: 3.7 µM (inactive)
KM12
  GI50: 3.8 µM (inactive)
SK-MEL-28
  GI50: 31.3 µM (inactive)
SNB-19
  GI50: 3.35 µM (inactive)
NCI-H460
  GI50: 3.71 µM (inactive)
ACHN
  GI50: 3.56 µM (inactive)
786-0
  GI50: 9.86 µM (inactive)
KM-20L2
  GI50: 4.52 µM (inactive)
SR
  GI50: 4.03 µM (inactive)
Malme-3M
  GI50: 8.83 µM (inactive)
DLD-1
  GI50: 4.71 µM (inactive)
UACC-257
  GI50: 6.61 µM (inactive)
HCC 2998
  GI50: 5.4 µM (inactive)
SK-MEL-5
  GI50: 6.22 µM (inactive)
HOP-92
  GI50: 3.35 µM (inactive)
NCI-H23
  GI50: 2.31 µM (inactive)
NCI-H522
  GI50: 3.22 µM (inactive)
DMS-114
  GI50: 3.85 µM (inactive)
IGROV-1
  GI50: 2.31 µM (inactive)
COLO 205
  GI50: 3.93 µM (inactive)
UO-31
  GI50: 4.4 µM (inactive)
HCT-15
  GI50: 4.61 µM
A549
  GI50: 3.72 µM (inactive)
MOLT-4
  GI50: 3.31 µM (inactive)
CCRF-CEM
  GI50: 2.84 µM (inactive)
SNB-75
  GI50: 5 µM (inactive)
SF-268
  GI50: > 100 µM (inactive)
U-251
  GI50: 3.3 µM (inactive)
LXFL 529
  GI50: 3.17 µM (inactive)
OVCAR-4
  GI50: 7.19 µM (inactive)
K562
  GI50: 3.29 µM (inactive)
RPMI-8226
  GI50: 3.51 µM (inactive)
HL-60
  GI50: 3.94 µM (inactive)
NCI-H226
  GI50: 3.94 µM (inactive)
M14
  GI50: 14.8 µM (inactive)
SK-MEL-2
  GI50: 4.92 µM (inactive)
XF498
  GI50: 3.18 µM (inactive)
LOX IMVI
  GI50: 8.89 µM (inactive)
OVCAR-5
  GI50: 31.6 µM (inactive)
OVCAR-3
  GI50: 3.62 µM (inactive)
CAKI-1
  GI50: 3.58 µM (inactive)
HCT-116
  GI50: 3.48 µM (inactive)
HOP-62
  GI50: 6.01 µM (inactive)
M19-MEL
  GI50: 5.85 µM (inactive)
TK-10
  GI50: 6.03 µM (inactive)
